Measurements as given in patent US6274715A, “Tricyclic erythromycin derivatives” (priority 1997, dated 2001).
Converted amounts (≈) assume the structure as drawn. Read-outs that look alike come from different tables or passages of the source.

Assays:
Type in all cases: cell-based
[1] = test system: STAPHYLOCOCCUS AUREUS ATCC 6538P; test: In vitro antibacterial activity, MIC, BHI agar dilution; settings: S. aureus ATCC 6538P, 35-37° C., 20 to 24 hours
[2] = test system: STAPHYLOCOCCUS AUREUS A5177; test: as above
[3] = test system: STAPHYLOCOCCUS AUREUS NCTC10649M; test: as above; settings: S. aureus NCTC10649M
[4] = test system: STAPHYLOCOCCUS AUREUS CMX 553; test: as above
[5] = test system: STAPHYLOCOCCUS EPIDERMIDIS 3519; settings: S. epidermidis 3519; BHI agar; unit assumed
[6] = test system: EN[…] ATCC 8043; test: In vitro antibacterial activity, MIC, BHI agar dilution
Method: (§1) Representative compounds of the present invention were assayed in vitro for antibacterial activity as follows: Twelve petri dishes containing successive aqueous dilutions of the test compound mixed with 10 mL of sterilized Brain Heart Infusion (BHI) agar (Difco 0418-01-5) were prepared. Each plate was inoculated with 1:100 (or 1:10 for slow-growing strains, such as Micrococcus and Streptococcus) dilutions of up to 32 different microorganisms, using a Steers replicator block. The inoculated plates were incubated at 35-37° C. for 20 to 24 hours. In addition, a control plate, using BHI agar containing no test compound, was prepared and incubated at the beginning and end of each test.
(§2) An additional plate containing a compound having known susceptibility patterns for the organisms being tested and belonging to the same antibiotic class as the test compound was also prepared and incubated as a further control, as well as to provide test-to-test comparability. Erythromycin A was used for this purpose.
(§3) After incubation, each plate was visually inspected. The minimum inhibitory concentration (MIC) was defmed as the lowest concentration of drug yielding no growth, a slight haze, or sparsely isolated colonies on the inoculum spot as compared to the growth control.

[7] = test system: M[…] ATCC 4698; test: as above; settings: M. luteus ATCC 4698, unit assumed
Method: as §1, §2, §3

[8] = test system: M[…] ATCC 9341; test: as above
Method: as §1, §2, §3

[9] = test system: STR[…] 508; test: as above
Method: as §1, §2, §3

[10] = test system: STREPTOCOCCUS PYOGENES EES61; test: as above; settings: S. pyogenes EES61, unit assumed
[11] = test system: STREPTOCOCCUS PYOGENES 930; test: as above
[12] = test system: STREPTOCOCCUS PYOGENES PIU 2548; test: as above; settings: S. pyogenes PIU 2548, unit assumed
[13] = test system: ESCHERICHIA COLI JUHL; settings: E. coli JUHL; BHI agar; listed as Ex 39; unit assumed
[14] = test system: ESCHERICHIA COLI SS; test: In vitro antibacterial activity, MIC, BHI agar dilution; settings: E. coli SS, unit assumed
[15] = test system: ESCHERICHIA COLI DC-2; test: as above
[16] = test system: ESCHERICHIA COLI H560; test: as above
[17] = test system: ENTEROBACTER AEROGENES ATCC 13048; test: as above
[18] = test system: PSEUDOMONAS AERUGINOSA BMH10; test: as above
[19] = test system: PSEUDOMONAS AERUGINOSA K799/WT; test: as above; settings: P. aeruginosa K799/WT
[20] = test system: PSEUDOMONAS AERUGINOSA K799/61; test: as above
[21] = test system: STAPHYLOCOCCUS AUREUS A-5278; test: as above; settings: S. aureus A-5278, unit assumed
[22] = test system: STAPHYLOCOCCUS AUREUS CMX 642A; test: as above; settings: S. aureus CMX 642A, unit assumed
[23] = test system: STAPHYLOCOCCUS AUREUS 1775; test: as above; settings: S. aureus 1775, unit assumed
[24] = test system: STREPTOCOCCUS BOVIS A-5169; test: as above
[25] = test system: ESCHERICHIA COLI KNK 437; settings: E. coli KNK 437, BHI agar, unit assumed
[26] = test system: KLEBSIELLA PNEUMONIAE ATCC 8045; test: In vitro antibacterial activity, MIC, BHI agar dilution
[27] = test system: PROVIDENCIA STUARTII CMX 640; settings: P. stuartii CMX 640; BHI agar; unit assumed
[28] = test system: PSEUDOMONAS AERUGINOSA 5007; test: In vitro antibacterial activity, MIC, BHI agar dilution
[29] = test system: PSEUDOMONAS CEPACIA 296I; test: as above; settings: P. cepacia 296I
[30] = test system: PSEUDOMONAS AERUGINOSA DPHD-5263; test: as above; settings: P. aeruginosa DPHD-5263, unit assumed
[31] = test system: PSEUDOMONAS AERUGINOSA DPHD-2862; test: as above; settings: P. aeruginosa DPHD-2862, unit assumed
[32] = test system: CANDIDA ALBICANS CCH 442; test: as above
[33] = test system: MYCOBACTERIUM SMEGMATIS ATCC 114; test: as above; settings: M. smegmatis ATCC 114, unit assumed
[34] = S. aureus CMX 553, unit assumed
[35] = S. agalactiae CMX 508, unit assumed
[36] = P. aeruginosa K799/61, unit assumed

Work on CCC1OC(=O)C(C)C(=O)C(C)C(OC2OC(C)CC(N(C)C)C2O)C(C)(OC)CC(C)C2=NCC(CCc3ccccc3)N3C(=O)OC1(C)C3C2C (stereo not shown) [Example 39] yielded an MIC ([1]; unit assumed) of 0.78 mg/L (≈ 1.05 µM), an MIC ([2]; S. aureus A5177, unit assumed) of 0.39 mg/L (≈ 0.526 µM) and an MIC ([3]; listed as Ex 39, unit assumed) of 0.39 mg/L (≈ 0.526 µM). The MIC [4, 34] was 0.39 mg/L (≈ 0.526 µM), the MIC [5] was 0.78 mg/L (≈ 1.05 µM) and the MIC ([6]; E. faecium ATCC 8043, listed as Ex 39, unit assumed) was 0.1 mg/L (≈ 0.135 µM). It also gave an MIC [7] of 0.2 mg/L (≈ 0.27 µM), an MIC ([8]; M. luteus ATCC 9341, listed as Ex 39, unit assumed) of 0.1 mg/L (≈ 0.135 µM) and an MIC ([9]; S. agalactiae CMX 508, listed as Ex 39, unit assumed) of 0.05 mg/L (≈ 0.0674 µM). For the same molecule, the MIC [10] was 0.01 mg/L (≈ 0.0135 µM), the MIC ([11]; S. pyogenes 930, listed as Ex 39, unit assumed) was 100 mg/L (≈ 135 µM) and the MIC [12] was 0.2 mg/L (≈ 0.27 µM). The MIC [13] was 100 mg/L (≈ 135 µM), the MIC [14] was 0.39 mg/L (≈ 0.526 µM) and the MIC ([15]; E. coli DC-2, unit assumed) was 100 mg/L (≈ 135 µM). For the same molecule, the MIC ([16]; E. coli H560, listed as Ex 39, unit assumed) was 25 mg/L (≈ 33.7 µM), the MIC ([17]; E. aerogenes ATCC 13048, listed as Ex 39, unit assumed) was over 100 mg/L and the MIC ([18]; P. aeruginosa BMH10, listed as Ex 39, unit assumed) was 50 mg/L (≈ 67.4 µM). For the same molecule, the MIC ([19]; listed as Ex 39, unit assumed) was 100 mg/L (≈ 135 µM) and the MIC ([20]; P. aeruginosa K799/61, listed as Ex 39, unit assumed) was 1.56 mg/L (≈ 2.1 µM).

Molecule CC[C@H]1OC(=O)[C@H](C)C(=O)[C@H](C)[C@@H](O[C@@H]2O[C@H](C)C[C@H](N(C)C)[C@H]2O)[C@](C)(OC)C[C@@H](C)C2=NC[C@H](COCc3ccc(OC)cc3)N3C(=O)O[C@@]1(C)[C@H]3[C@H]2C [Example 62] has an MIC ([1]; unit assumed) of 0.2 mg/L (≈ 0.254 µM), an MIC ([2]; S. aureus A5177, unit assumed) of 0.2 mg/L (≈ 0.254 µM) and an MIC [21] of over 100 mg/L. For the same molecule, the MIC [22] was 0.2 mg/L (≈ 0.254 µM), the MIC ([3]; unit assumed) was 0.2 mg/L (≈ 0.254 µM) and the MIC [4, 34] was 0.2 mg/L (≈ 0.254 µM). For the same molecule, the MIC [23] was over 100 mg/L, the MIC [5] was 0.2 mg/L (≈ 0.254 µM) and the MIC ([6]; E. faecium ATCC 8043, unit assumed) was 0.1 mg/L (≈ 0.127 µM). It also gave an MIC [7] of 0.02 mg/L (≈ 0.0254 µM), an MIC ([8]; M. luteus ATCC 9341, unit assumed) of 0.01 mg/L (≈ 0.0127 µM) and an MIC [9, 35] of 0.1 mg/L (≈ 0.127 µM). For the same molecule, the MIC ([24]; S. bovis A-5169, unit assumed) was 0.1 mg/L (≈ 0.127 µM), the MIC [10] was 0.1 mg/L (≈ 0.127 µM) and the MIC ([11]; S. pyogenes 930, unit assumed) was over 100 mg/L. The MIC [12] was 0.2 mg/L (≈ 0.254 µM), the MIC [14] was 0.2 mg/L (≈ 0.254 µM) and the MIC ([15]; E. coli DC-2, unit assumed) was 50 mg/L (≈ 63.5 µM). For the same molecule, the MIC ([16]; E. coli H560, unit assumed) was 100 mg/L (≈ 127 µM), the MIC [25] was 100 mg/L (≈ 127 µM) and the MIC ([17]; E. aerogenes ATCC 13048, unit assumed) was 25 mg/L (≈ 31.7 µM). For the same molecule, the MIC ([26]; K. pneumoniae ATCC 8045, unit assumed) was 25 mg/L (≈ 31.7 µM), the MIC [27] was over 100 mg/L and the MIC ([18]; P. aeruginosa BMH10, unit assumed) was 100 mg/L (≈ 127 µM). For the same molecule, the MIC ([28]; P. aeruginosa 5007, unit assumed) was 100 mg/L (≈ 127 µM), the MIC ([19]; unit assumed) was 25 mg/L (≈ 31.7 µM) and the MIC [20, 36] was 0.2 mg/L (≈ 0.254 µM). The MIC ([29]; unit assumed) was 12.5 mg/L (≈ 15.9 µM), the MIC [30] was 50 mg/L (≈ 63.5 µM) and the MIC [31] was 100 mg/L (≈ 127 µM). It also gave an MIC ([32]; C. albicans CCH 442, unit assumed) of over 100 mg/L and an MIC [33] of 0.1 mg/L (≈ 0.127 µM).

CC[C@H]1OC(=O)[C@H](C)C(=O)[C@H](C)[C@@H](O[C@@H]2O[C@H](C)C[C@H](N(C)C)[C@H]2O)[C@](C)(OC)C[C@@H](C)C2=NC3CN(CCCc4ccccc4)CC3N3C(=O)O[C@@]1(C)[C@H]3[C@H]2C (stereo partly shown) [Example 112] gave an MIC ([1]; listed as Ex 112, unit assumed) of 0.39 mg/L (≈ 0.489 µM), an MIC ([2]; S. aureus A5177, listed as Ex 112, unit assumed) of 0.39 mg/L (≈ 0.489 µM) and an MIC [22] of 0.78 mg/L (≈ 0.979 µM). For the same molecule, the MIC ([3]; listed as Ex 112, unit assumed) was 0.78 mg/L (≈ 0.979 µM), the MIC ([4]; S. aureus CMX 553, listed as Ex 112, unit assumed) was 0.78 mg/L (≈ 0.979 µM) and the MIC [5] was 0.78 mg/L (≈ 0.979 µM). It also gave an MIC [7] of 0.2 mg/L (≈ 0.251 µM), an MIC ([8]; M. luteus ATCC 9341, listed as Ex 112, unit assumed) of 0.1 mg/L (≈ 0.125 µM) and an MIC [9, 35] of 0.02 mg/L (≈ 0.0251 µM). It also gave an MIC ([24]; S. bovis A-5169, listed as Ex 112, unit assumed) of at most 0.005 mg/L, an MIC ([11]; S. pyogenes 930, listed as Ex 112, unit assumed) of over 100 mg/L and an MIC [12] of 0.2 mg/L (≈ 0.251 µM). The MIC ([15]; E. coli DC-2, listed as Ex 112, unit assumed) was over 100 mg/L, the MIC ([16]; E. coli H560, unit assumed) was 50 mg/L (≈ 62.7 µM) and the MIC ([25]; listed as Ex 112) was 100 mg/L (≈ 125 µM). For the same molecule, the MIC ([17]; E. aerogenes ATCC 13048, listed as Ex 112, unit assumed) was 100 mg/L (≈ 125 µM), the MIC ([26]; K. pneumoniae ATCC 8045, listed as Ex 112, unit assumed) was 100 mg/L (≈ 125 µM) and the MIC ([18]; P. aeruginosa BMH10, listed as Ex 112, unit assumed) was 100 mg/L (≈ 125 µM). The MIC ([28]; P. aeruginosa 5007, listed as Ex 112, unit assumed) was over 100 mg/L, the MIC ([19]; listed as Ex 112, unit assumed) was over 100 mg/L and the MIC [20, 36] was 0.78 mg/L (≈ 0.979 µM). The MIC ([29]; listed as Ex 112, unit assumed) was 100 mg/L (≈ 125 µM), the MIC ([32]; C. albicans CCH 442, listed as Ex 112, unit assumed) was 100 mg/L (≈ 125 µM) and the MIC [33] was 0.39 mg/L (≈ 0.489 µM).
